Tests used:
[1] = tested on: BTN3A1+CD80+ CHO-K1 cells; experiment: TNF secretion by Vγ9Vδ2 T cells co-cultured with zoledronate-treated BTN3A1+CD80+ CHO-K1 cells; type: cell-based, Chinese hamster; settings: Fig. 3c, ii
Procedure: (§1) BTN2A^−/− MIA PaCa-2 (BTN2A1/BTN2A2 KO) cells were plated at 1.0 × 10^4 cells per well in 96-well plates 1 day before transfection. […] The medium was then aspirated and cells were washed four times with PBS at room temperature. Vγ9Vδ2 T cells (1.0 × 10^5 cells per well) were then added and cocultured with MIA PaCa-2 cells, and culture supernatants were collected after 16 h and assayed for TNF levels using a TNF human uncoated ELISA kit (Invitrogen). The assay of CHO-K1 cells (infected with lentivirus of BTN3A1 and CD80) was performed according to the same methods as for the MIA PaCa-2 cells[22],[23].

[2] = tested on: BTN2A−/− MIA PaCa-2 (BTN2A1/BTN2A2 KO) cells; experiment: IFNγ release from Vγ9Vδ2 T cells in response to zoledronate stimulation of BTN2A−/− MIA PaCa-2 cells expressing BTN2A1 variants; type: cell-based, human; set-up: unit not given here; settings: 6 values
[3] = tested on: BTN2A−/− MIA PaCa-2 (BTN2A1/BTN2A2 KO) cells; experiment: TNF secretion by Vγ9Vδ2 T cells co-cultured with zoledronate-treated BTN2A−/− MIA PaCa-2 cells expressing BTN2A1 variants; type: cell-based, human; settings: n=6
Procedure: as §1

[4] = tested on: MIA PaCa-2 cells; experiment: AFM-SCFS binding force between a Vγ9Vδ2 T cell and a MIA PaCa-2 cell; type: cell-based, human; set-up: binding force, Mean, Fig. 6b / binding force, Median, Fig. 6b: unit not given here; settings: second panel (Ctrl, ZOL, HMBPP-15, HMBPP-15+ZOL)
Procedure: The AFM-SCFS analysis procedure was performed using the JPK CellHesion unit as previously described, and closely followed our previously reported protocol for APCs[4]. […] The glass disks were quickly transferred to an AFM adapter with immediate addition of 1 ml of fresh medium (DMEM: 10% FBS and 1% penicillin–streptomycin). […] The raw data were normalized to the background readings. Blank readings for each set of affinity measurements (Vγ9Vδ2 T cells touching the glass surface) were collected immediately before each assay to perform background subtraction. All data were analysed using the JPK image processing software. […] The following steps were the same as described above.

[5] = tested on: Vγ9Vδ2 T cells; settings: cited from earlier work

With `O=P(O)(O)C(O)(Cn1ccnc1)P(=O)(O)O` [Zoledronate] the “TNF secretion by Vγ9Vδ2 T cells, Mean” value ([1]; zoledronate-treated cells expressing BTN2A1 D455G/E457R, n=6) was 11.14, the “TNF secretion by Vγ9Vδ2 T cells, Mean” value ([1]; zoledronate-treated cells expressing BTN2A1 R477A, n=6) was 8.53 and the “TNF secretion by Vγ9Vδ2 T cells, Mean” value ([1]; zoledronate-treated cells expressing BTN2A1 T510A, n=6) was 7.472. For the same compound, the “TNF secretion by Vγ9Vδ2 T cells, Mean” value ([1]; zoledronate-treated cells expressing BTN2A1 T510M, n=6) was 7.874, the “TNF secretion by Vγ9Vδ2 T cells, Mean” value ([1]; zoledronate-treated cells expressing BTN2A1 V511A, n=6) was 10.17 and the “TNF secretion by Vγ9Vδ2 T cells, Mean” value ([1]; zoledronate-treated cells expressing BTN2A1 V511D, n=6) was 6.367. The “TNF secretion by Vγ9Vδ2 T cells, Mean” value ([1]; zoledronate-treated cells expressing BTN2A1 V511W, n=6) was 8.466, the “TNF secretion by Vγ9Vδ2 T cells, Mean” value ([1]; zoledronate-treated cells expressing BTN2A1 WT, n=5) was 465.4 and the “TNF secretion by Vγ9Vδ2 T cells, Mean” value ([1]; zoledronate-treated cells expressing BTN2A1 ∆C, n=6) was 7.982. The “TNF secretion by Vγ9Vδ2 T cells, Mean” value ([1]; zoledronate-treated cells, NT, n=6) was 20.41, the “Mean (Extended Data Fig. 7b)” value ([2]; NT cells) was 2.056 and the “Mean (Extended Data Fig. 7b)” value ([2]; cells expressing BTN2A1 E286G) was 48.61. For the same compound, the “Mean (Extended Data Fig. 7b)” value ([2]; cells expressing BTN2A1 E300G) was 78.93, the “Mean (Extended Data Fig. 7b)” value ([2]; cells expressing BTN2A1 E307G) was 40.34 and the “Mean (Extended Data Fig. 7b)” value ([2]; cells expressing BTN2A1 E316G) was 128.5. For the same compound, the “Mean (Extended Data Fig. 7b)” value ([2]; cells expressing BTN2A1 F324G) was 95.24, the “Mean (Extended Data Fig. 7b)” value ([2]; cells expressing BTN2A1 K276G) was 55.14 and the “Mean (Extended Data Fig. 7b)” value ([2]; cells expressing BTN2A1 K283G) was 42.21. For the same compound, the “Mean (Extended Data Fig. 7b)” value ([2]; cells expressing BTN2A1 K304G) was 117, the “Mean (Extended Data Fig. 7b)” value ([2]; cells expressing BTN2A1 K311G) was 59.44 and the “Mean (Extended Data Fig. 7b)” value ([2]; cells expressing BTN2A1 L272G) was 81.83. The “Mean (Extended Data Fig. 7b)” value ([2]; cells expressing BTN2A1 L279G) was 16.84, the “Mean (Extended Data Fig. 7b)” value ([2]; cells expressing BTN2A1 L294G) was 44.72 and the “Mean (Extended Data Fig. 7b)” value ([2]; cells expressing BTN2A1 L297G) was 44.28. For the same compound, the “Mean (Extended Data Fig. 7b)” value ([2]; cells expressing BTN2A1 L314G) was 23.31, the “Mean (Extended Data Fig. 7b)” value ([2]; cells expressing BTN2A1 L318G) was 13.17 and the “Mean (Extended Data Fig. 7b)” value ([2]; cells expressing BTN2A1 L325C/A327C) was 59.39. For the same compound, the “Mean (Extended Data Fig. 7b)” value ([2]; cells expressing BTN2A1 L325G) was 7.962, the “Mean (Extended Data Fig. 7b)” value ([2]; cells expressing BTN2A1 R290A) was 84.46 and the “Mean (Extended Data Fig. 7b)” value ([2]; cells expressing BTN2A1 W320A) was 70.37. The “Mean (Extended Data Fig. 7b)” value ([2]; cells expressing BTN2A1 WT) was 151.4, the “TNF secretion by Vγ9Vδ2 T cells, Mean” value ([3]; Fig. 3c, i, zoledronate-treated cells expressing BTN2A1 D455G/E457R) was 6.214 and the “TNF secretion by Vγ9Vδ2 T cells, Mean” value ([3]; Fig. 3c, i, zoledronate-treated cells expressing BTN2A1 R477A) was 8.398. The “TNF secretion by Vγ9Vδ2 T cells, Mean” value ([3]; Fig. 3c, i, zoledronate-treated cells expressing BTN2A1 T510A) was 6.658, the “TNF secretion by Vγ9Vδ2 T cells, Mean” value ([3]; Fig. 3c, i, zoledronate-treated cells expressing BTN2A1 T510M) was 7.401 and the “TNF secretion by Vγ9Vδ2 T cells, Mean” value ([3]; Fig. 3c, i, zoledronate-treated cells expressing BTN2A1 V511A) was 7.427. The “TNF secretion by Vγ9Vδ2 T cells, Mean” value ([3]; Fig. 3c, i, zoledronate-treated cells expressing BTN2A1 V511D) was 6.982, the “TNF secretion by Vγ9Vδ2 T cells, Mean” value ([3]; Fig. 3c, i, zoledronate-treated cells expressing BTN2A1 V511W) was 7.617 and the “TNF secretion by Vγ9Vδ2 T cells, Mean” value ([3]; Fig. 3c, i, zoledronate-treated cells expressing BTN2A1 WT) was 158.2. The “TNF secretion by Vγ9Vδ2 T cells, Mean” value ([3]; Fig. 3c, i, zoledronate-treated cells expressing BTN2A1 ∆C) was 9.364, the “TNF secretion by Vγ9Vδ2 T cells, Mean” value ([3]; Fig. 3c, i, zoledronate-treated cells, NT) was 7.859 and the “TNF secretion by Vγ9Vδ2 T cells, Mean” value ([3]; Fig. 3d, zoledronate-treated cells expressing BTN2A1 H471G/I472A/Y473A) was 9.274. The “TNF secretion by Vγ9Vδ2 T cells, Mean” value ([3]; Fig. 3d, zoledronate-treated cells expressing BTN2A1 R449A/R469A) was 16.58, the “TNF secretion by Vγ9Vδ2 T cells, Mean” value ([3]; Fig. 3d, zoledronate-treated cells expressing BTN2A1 WT) was 182.7 and the “TNF secretion by Vγ9Vδ2 T cells, Mean” value ([3]; Fig. 3d, zoledronate-treated cells expressing BTN2A1 Y464A-T474A) was 9.364. The “TNF secretion by Vγ9Vδ2 T cells, Mean” value ([3]; Fig. 3d, zoledronate-treated cells expressing BTN2A1 ∆C) was 0.6146, the “TNF secretion by Vγ9Vδ2 T cells, Mean” value ([3]; Fig. 3d, zoledronate-treated cells, NT) was 9.612 and the “binding force, Mean, Fig. 6b” value [4] was 1524. The “binding force, Median, Fig. 6b” value [4] was 1525.

In the case of `Cc1ccc(C/C(=C\COP(=O)(O)OP(=O)(O)O)CO)cc1` [HMBPP-08, (E)-4-hydroxy-3-(4-methylbenzyl)but-2-enyl diphosphate], the “γδ T cell activation” value [5] is listed as “do not efficiently activate”.

Reference: PMC10533412, “Phosphoantigens glue butyrophilin 3A1 and 2A1 to activate Vγ9Vδ2 T cells” (Nature, 2023)
